24 compounds from patent US10329295B2, “Pyrrolotriazine inhibitors of IRAK4 activity” (MERCK SHARP & DOHME CORP., priority 2015, dated 2019) can be followed below.

Each structure is given as a SMILES string. Counter-ions that a name gives are not always drawn.

In general, IC50 refers to the midpoint of a concentration-inhibition curve. Read a high IC50 as weaker potency in that assay.

In the test the target is GST tagged IRAK4 (Homo sapiens (Human), UniProt Q9NWZ3). Kind of test: IRAK4 Kinase Assay (IMAP fluorescence polarization). It is filed as biochemical. As to conditions: 0.5 nM GST tagged IRAK4, 100 μM ATP, 30 minutes at 25° C. The method, then: The kinase activity of IRAK4 is determined by its ability to catalyze the phosphorylation of a fluorescent polypeptide substrate. The extent of phosphorylation is measured using the IMAP technology (Molecular Devices) where the phosphorylated fluorescent substrate binds to the large M(III)-based nanoparticles which reduces the rotational speed of the substrate and thus increases its fluorescent polarization (FP).
Sequence of GST tagged IRAK4 (Q9NWZ3 whole entry): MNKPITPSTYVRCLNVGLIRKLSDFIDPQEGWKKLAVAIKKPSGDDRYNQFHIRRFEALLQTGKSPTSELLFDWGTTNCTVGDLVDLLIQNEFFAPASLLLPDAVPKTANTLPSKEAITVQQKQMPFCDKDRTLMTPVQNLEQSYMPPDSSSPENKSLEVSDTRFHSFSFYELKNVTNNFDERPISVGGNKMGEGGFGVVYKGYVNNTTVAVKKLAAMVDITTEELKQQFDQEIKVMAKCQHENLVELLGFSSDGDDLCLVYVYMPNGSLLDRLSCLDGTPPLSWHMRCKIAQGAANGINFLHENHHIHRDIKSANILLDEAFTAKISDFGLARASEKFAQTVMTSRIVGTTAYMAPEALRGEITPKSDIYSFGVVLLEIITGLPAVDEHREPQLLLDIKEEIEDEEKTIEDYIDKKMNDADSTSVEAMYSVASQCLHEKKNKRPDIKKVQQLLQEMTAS
20 μL reaction mixture contains 10 mM TriHCl, pH 7.2, 0.5 nM GST tagged IRAK4 (SignalChem), 100 nM fluorescent peptide substrate (RP7030, Molecular Devices), 100 μM ATP, 1 mM DDT, 1 mM MgCl2, and 0.01% Tween 20. The reaction is initiated by the addition of ATP. After incubation for 30 minutes at 25° C., 60 μL of Progressive IMAP Reagent (Molecular Devices) is added to stop the reaction. Change in RP7030's FP is determined by a FP reader (Analyst HT, LJL BioSystems).
In general terms: In fluorescence polarisation assays a small probe gives low polarisation when free and higher when bound to something large.
Compound `Cn1cc(NC(=O)c2ccc3cnc(N4C[C@@H]5CC[C@H]4CN5)nn23)c(Cl)n1` (single isomer, unassigned) [Example 44, N-(3-chloro-1-methyl-1H-pyrazol-4-yl)-2-[(1S,4S)- or (1R,4R)-2,5-diazabicyclo[2.2.2]oct-2-yl]pyrrolo[2,1-f][1,2,4]triazine-7-carboxamide trifluoroacetate] registered an IC50 of 125 nM.
`Cn1cc(NC(=O)c2ccc3cnc(N4C[C@H]5CC[C@@H]4CN5)nn23)c(Cl)n1` (single isomer, unassigned) [Example 45, N-(3-chloro-1-methyl-1H-pyrazol-4-yl)-2-[(1S,4S)- or (1R,4R)-2,5-diazabicyclo[2.2.2]oct-2-yl]pyrrolo[2,1-f][1,2,4]triazine-7-carboxamide trifluoroacetate] returned an IC50 of 80 nM.
The figure for `Cn1cc(NC(=O)c2ccc3cnc(N4C[C@@H]5CC[C@H]4CN5)nn23)c(C#N)n1` (single isomer, unassigned) [Example 46, N-(3-cyano-1-methyl-1H-pyrazol-4-yl)-2-[(1S,4S)- or (1R,4R)-2,5-diazabicyclo[2.2.2]oct-2-yl]pyrrolo[2,1-f][1,2,4]triazine-7-carboxamide trifluoroacetate] is 72 nM.
The figure for `Cn1cc(NC(=O)c2ccc3cnc(N4C[C@H]5CC[C@@H]4CN5)nn23)c(C#N)n1` (single isomer, unassigned) [Example 47, N-(3-cyano-1-methyl-1H-pyrazol-4-yl)-2-[(1S,4S)- or (1R,4R)-2,5-diazabicyclo[2.2.2]oct-2-yl]pyrrolo[2,1-f][1,2,4]triazine-7-carboxamide trifluoroacetate] is 265 nM; for `O=C(Nc1ccsc1Br)c1ccc2cnc(N3C[C@@H]4CC[C@H]3CN4)nn12` (single isomer, unassigned) [Example 48, N-(2-bromothiophen-3-yl)-2-[(1S,4S)- or (1R,4R)-2,5-diazabicyclo[2.2.2]oct-2-yl]pyrrolo[2,1-f][1,2,4]triazine-7-carboxamide trifluoroacetate] it is 1650 nM.
As to `O=C(Nc1ccsc1Br)c1ccc2cnc(N3C[C@H]4CC[C@@H]3CN4)nn12` (single isomer, unassigned) [Example 49, N-(2-bromothiophen-3-yl)-2-[(1S,4S)- or (1R,4R)-2,5-diazabicyclo[2.2.2]oct-2-yl]pyrrolo[2,1-f][1,2,4]triazine-7-carboxamide trifluoroacetate], the IC50 was found to be 1930 nM.
In the case of `O=C(Nc1ccsc1Cl)c1ccc2cnc(N3C[C@@H]4CC[C@H]3CN4)nn12` (single isomer, unassigned) [Example 53, N-(2-chlorothiophen-3-yl)-2-[(1S,4S)- or (1R,4R)-2,5-diazabicyclo[2.2.2]oct-2-yl]pyrrolo[2,1-f][1,2,4]triazine-7-carboxamide trifluoroacetate] it was 1640 nM.
The figure for `O=C(Nc1ccsc1Cl)c1ccc2cnc(N3C[C@H]4CC[C@@H]3CN4)nn12` (single isomer, unassigned) [Example 54, N-(2-chlorothiophen-3-yl)-2-[(1S,4S)- or (1R,4R)-2,5-diazabicyclo[2.2.2]oct-2-yl]pyrrolo[2,1-f][1,2,4]triazine-7-carboxamide trifluoroacetate] is 819 nM; for `O=C(Nc1ccccc1Cl)c1ccc2cnc(N3C[C@H]4CC[C@@H]3CN4)nn12` (single isomer, unassigned) [Example 55, N-(2-chlorophenyl)-2-[(1S,4S)- or (1R,4R)-2,5-diazabicyclo[2.2.2]oct-2-yl]pyrrolo[2,1-f][1,2,4]triazine-7-carboxamide trifluoroacetate] it is 557 nM.
In the case of `N#Cc1ccccc1NC(=O)c1ccc2cnc(N[C@H]3CCCCNC3)nn12` (single isomer, unassigned) [Example 60, 2-[(3S)- or (3R)-azepan-3-ylamino]-N-(2-cyanophenyl)pyrrolo[2,1-f][1,2,4]triazine-7-carboxamide trifluoroacetate] it was 8 nM.
Consider `O=C(Nc1ccccc1C(F)F)c1ccc2cnc(N3C[C@@H]4CC[C@H]3CN4)nn12` (single isomer, unassigned) [Example 61, 2-[(1S,4S)- or (1R,4R)-2,5-diazabicyclo[2.2.2]oct-2-yl]-N-[2-(difluoromethyl)phenyl]-pyrrolo[2,1-f][1,2,4]triazine-7-carboxamide trifluoroacetate], for which the IC50 stood at 10000 nM.
The figure for `O=C(Nc1ccccc1C(F)F)c1ccc2cnc(N3C[C@H]4CC[C@@H]3CN4)nn12` (single isomer, unassigned) [Example 62, 2-[(1S,4S)- or (1R,4R)-2,5-diazabicyclo[2.2.2]oct-2-yl]-N-[2-(difluoromethyl)phenyl]-pyrrolo[2,1-f][1,2,4]triazine-7-carboxamide trifluoroacetate] is 944 nM.
For the compound `Cn1cc(NC(=O)c2ccc3cnc(N4C[C@@H]5CC[C@H]4CN5)nn23)c(Br)n1` (single isomer, unassigned) [Example 63, N-(3-bromo-1-methyl-1H-pyrazol-4-yl)-2-[(1S,4S)- or (1R,4R)-2,5-diazabicyclo[2.2.2]oct-2-yl]pyrrolo[2,1-f][1,2,4]triazine-7-carboxamide trifluoroacetate], half-maximal inhibition (IC50) required 92 nM.
The compound `Cn1cc(NC(=O)c2ccc3cnc(N4C[C@H]5CC[C@@H]4CN5)nn23)c(Br)n1` (single isomer, unassigned) [Example 64, N-(3-bromo-1-methyl-1H-pyrazol-4-yl)-2-[(1S,4S)- or (1R,4R)-2,5-diazabicyclo[2.2.2]oct-2-yl]pyrrolo[2,1-f][1,2,4]triazine-7-carboxamide trifluoroacetate] registered an IC50 of 122 nM.
For `O=C(Nc1ccccc1Cl)c1ccc2cnc(N3C[C@@H]4CC[C@H]3CN4)nn12` (single isomer, unassigned) [Example 65, N-(2-chlorophenyl)-2-[(1S,4S)- or (1R,4R)-2,5-diazabicyclo[2.2.2]oct-2-yl]pyrrolo[2,1-f][1,2,4]triazine-7-carboxamide trifluoroacetate], it took 2060 nM to reach half-maximal inhibition (IC50).
The figure for `O=C(Nc1ccccc1C(F)(F)F)c1ccc2cnc(N3C[C@H]4CC[C@@H]3CN4)nn12` (single isomer, unassigned) [Example 68, 2-[(1S,4S)- or (1R,4R)-2,5-diazabicyclo[2.2.2]oct-2-yl]-N-[2-(trifluoromethyl)phenyl]-pyrrolo[2,1-f][1,2,4]triazine-7-carboxamide trifluoroacetate] is 218 nM; for `Cn1cc(NC(=O)c2ccc3cnc(N[C@H]4CCCCNC4)nn23)c(C(F)(F)F)n1` (single isomer, unassigned) [Example 69, 2-[(3S)- or (3R)-azepan-3-ylamino]-N-[1-methyl-3-(trifluoromethyl)-1H-pyrazol-4-yl]pyrrolo[2,1-f][1,2,4]triazine-7-carboxamide trifluoroacetate] it is 5 nM.
In the case of `Cn1cc(NC(=O)c2ccc3cnc(N[C@@H]4CCCCNC4)nn23)c(C(F)(F)F)n1` (single isomer, unassigned) [Example 72, 2-[(3S)- or (3R)-azepan-3-ylamino]-N-[1-methyl-3-(trifluoromethyl)-1H-pyrazol-4-yl]pyrrolo[2,1-f][1,2,4]triazine-7-carboxamide trifluoroacetate] it was 4 nM; in that of `N#Cc1ccccc1NC(=O)c1ccc2cnc(N[C@@H]3CCCCNC3)nn12` (single isomer, unassigned) [Example 73, 2-[(3S)- or (3R)-azepan-3-ylamino]-N-(2-cyanophenyl)pyrrolo[2,1-f][1,2,4]triazine-7-carboxamide trifluoroacetate], 27 nM; in that of `N#Cc1ccccc1NC(=O)c1ccc2cnc(N3C[C@@H]4CC[C@H]3CN4)nn12` (single isomer, unassigned) [Example 74, N-(2-cyanophenyl)-2-[(1S,4S)- or (1R,4R)-2,5-diazabicyclo[2.2.2]oct-2-yl]pyrrolo[2,1-f][1,2,4]triazine-7-carboxamide trifluoroacetate], 850 nM.
The figure for `N#Cc1ccccc1NC(=O)c1ccc2cnc(N3C[C@H]4CC[C@@H]3CN4)nn12` (single isomer, unassigned) [Example 75, N-(2-cyanophenyl)-2-[(1S,4S)- or (1R,4R)-2,5-diazabicyclo[2.2.2]oct-2-yl]pyrrolo[2,1-f][1,2,4]triazine-7-carboxamide trifluoroacetate] is 4000 nM.
As to `O=C(Nc1ccccc1Br)c1ccc2cnc(N3C[C@H]4CC[C@@H]3CN4)nn12` (single isomer, unassigned) [Example 77, N-(2-bromophenyl)-2-[(1S,4S)- or (1R,4R)-2,5-diazabicyclo[2.2.2]oct-2-yl]pyrrolo[2,1-f][1,2,4]triazine-7-carboxamide trifluoroacetate], half-maximal inhibition (IC50) was put at 1960 nM.
The figure for `O=C(Nc1ccccc1C(F)(F)F)c1ccc2cnc(N3C[C@@H]4CC[C@H]3CN4)nn12` (single isomer, unassigned) [Example 78, 2-[(1S,4S)- or (1R,4R)-2,5-diazabicyclo[2.2.2]oct-2-yl]-N-[2-(trifluoromethyl)phenyl]-pyrrolo[2,1-f][1,2,4]triazine-7-carboxamide trifluoroacetate] is 1450 nM; for `O=C(Nc1cscc1C(F)F)c1ccc2cnc(N3C[C@@H]4CC[C@H]3CN4)nn12` (single isomer, unassigned) [Example 80, 2-[(1S,4S)- or (1R,4R)-2,5-diazabicyclo[2.2.2]oct-2-yl]-N-[4-(difluoromethyl)thiophen-3-yl]pyrrolo[2,1-f][1,2,4]triazine-7-carboxamide trifluoroacetate] it is 172 nM.
